Patent US10233205B2, “Magnetic resonance imaging contrast agent capable of detecting hydrogen peroxide and reducing reactive oxygen species” (Auburn University, priority 2015, dated 2019)

Tests used:
[1] = Superoxide scavenging, hypoxanthine-xanthine oxidase / lucigenin luminescence; format: biochemical; conditions: 50 mM Tris-HCl pH 8.0
Method: Superoxide was produced in situ from a reaction between xanthine and xanthine oxidase. The subsequent reaction of the O2^− with lucigenin provided a spectroscopic signal that can be used to provide a qualitative measure of an anti-oxidant's ability to degrade O2^−. The copper/zinc superoxide dismutase isolated from bovine erythrocytes (0.001-100 U/ml, Calbiochem) was used as a positive control. The assay was carried out in a total volume of 1 mL containing 50 mM tris (pH 8.0), hypoxanthine (50 μM), xanthine oxidase (0.005 U/ml, Calbiochem) and dark adapted lucigenin (5 μM) in the presence of a complex (0.1 nM-10 μM) or their vehicle. Reactions were carried out at room temperature and were initiated by the addition of xanthine oxidase to the hypoxanthine-containing solution. Luminescence was measured using a TD-20/20 (Turner Designs) luminometer and expressed as relative light units (RLU). Luminescence was measure for four 10 s integrations after an initial delay of 3 s. The four RLU values were averaged, and each concentration was expressed as a percent of that produced in the presence of vehicle. Each assay data point was performed in duplicate and assays were repeated three times.
Superoxide was generated using a hypoxanthine-xanthine oxidase reaction and detected using the chemiluminescent probe lucigenin. Reactions were carried out in 50 mM Tris-HCl (pH 8.0) containing either 1, 2, or Cu/Zn SOD from bovine erythrocytes (insert). Data for the various concentrations of 1, 2, and SOD are expressed as a percentage of luminescence in the presence of vehicle.
The ability of 3 to degrade superoxide was tested using a standard technique that uses the reaction between xanthine oxidase and xanthine to generate O2^− and a subsequent reaction with the chemiluminescent probe lucigenin to detect it. Reactions were carried out in 50 mM Tris-HCl (pH 8.0). Data for the various concentrations of Mn(II) complex are expressed as a percentage of luminescence in the presence of vehicle.

[2] = system: H9c2 cells; experiment: Cytotoxicity, CyQUANT cell number; format: cell-based; set-up: dose tolerated by H9c2 cells: unit not given here
Method: H9c2 cells were obtained from the American Tissue Type Collection (Manassas, Va., USA) and grown at 37° C. with 95% humidity and 5% CO2. Cells were grown in Dulbecco's modified eagles medium (DMEM) supplemented with 10% fetal bovine serum. Experiments were performed at 70-80% confluence. All experiments were performed in DMEM in the absence of fetal bovine serum. To determine the cytotoxic effects of 1 and 2, the H9c2 cells were exposed to increasing concentrations of these reagents or their vehicle in DMEM for either 4 or 24 h. The cell number was assessed using the CyQUANT Cell Proliferation Assay Kit (Life Technologies Corporation, Carlsbad, Calif.) per manufacturer's instructions. Cell number was expressed as a percentage of that measured for the vehicle-treated cells. Values are expressed as mean and SEM and represent three experiments performed in triplicate.
The toxicity of 3 was tested using H9c2 cells in order to facilitate comparison to that of 1. H9c2 cells were obtained from the American Tissue Type Collection (Manassas, Va., USA) and grown at 37° C. with 95% humidity and 5% CO2. Cells were grown in Dulbecco's modified eagles medium (DMEM) supplemented with 10% fetal bovine serum. Experiments were performed at 70-80% confluence. To determine the cytotoxic effects of 3, H9c2 cells were exposed to increasing concentrations of 3 ([…]) or its vehicle in DMEM for 4 or 24 hr. Cell number was assessed using the CyQUANT Cell Proliferation Assay Kit (Life Technologies Corporation, Carlsbad, Calif.) per manufacturer's instructions. Cell number was expressed as percentage of the vehicle-treated cells. Values are expressed as mean and standard deviation and represent 2-4 experiments performed in triplicate. The bars marked with an * display a significant difference from the vehicle-treated cell number for corresponding time period (p<0.05).

| Molecule | superoxide scavenging [1] | concentration without cell death / within error of control ([2]; 4 h) [µM] | concentration without impact on H9c2 viability ([2]; 24 h) [µM] | H9c2 cells surviving ([2]; 10 μM, 24 h) | dose tolerated by H9c2 cells ([2]; 4 h) | dose tolerated by H9c2 cells ([2]; 24 h) |
| --- | --- | --- | --- | --- | --- | --- |
| cis-Dibromo(N,N′-bis(2,5-dihydroxybenzyl)-N,N′-bis(2-pyridinylmethyl)-1,2-ethanediamine)manganese(II) [Complex 3] | successfully intercepts O2^− | 50 | 10 |  |  |  |
| CC#N.O=S(=O)([O-])C(F)(F)F.O=S(=O)([O-])C(F)(F)F.[Mn+2].[O-]c1ccc(O)cc1CN(CCN(Cc1ccccn1)Cc1ccccn1)Cc1ccccn1 [Complex 1, Acetonitrilo(N-(2,5-dihydroxy-benzyl)-N,N′,N′-tris(2-pyridinylmethyl)-1,2-ethanediamine)manganese(II) triflate] | successfully intercepts O2^− | 10 | 1.0 | less than 50% | 10 | 1.0 |
| CC#N.Cc1ccc(O)c(CN(CCN(Cc2ccccn2)Cc2ccccn2)Cc2ccccn2)c1.[Mn+2].[O-][Cl+3]([O-])([O-])[O-].[O-][Cl+3]([O-])([O-])[O-] [Complex 2, reference compound] | successfully intercepts O2^− |  |  |  | 10 |  |
